In US5684151A, “1-arylsulphonyl, arylcarbonyl and 1-arylphosphonyl-3-phenyl-1,4,5,6-tetrahydropyridazines” (priority 1995, dated 1997):
Where two headings read alike, the source gives them in different places.

Test system: mouse (MC3T3-E1) and human (TE-85) osteoblast-line cells
Assay type: cell-based
Source text: Compounds of the present invention have utility to treat osteoporosis through enhancement of bone calcification rather than traditional approaches which generally involve inhibition of bone degeneration or resorption. The compounds of the present invention have been evaluated as stimulators of proliferation of osteoblast cell and chick calivaria bone organ culture which is predictive of enhancement of bone mass and bone formation in vivo.
The action of select compounds to stimulate osteoblast growth was measured in culture by estimating the rate of DNA synthesis by the rate of ^3 H-thymidine incorporation into DNA. Only cells undergoing mitosis synthesized new DNA and thus only these cells incorporated the radiolabelled DNA-specific thymidine. The stimulation of the proliferation and differentiation of bone-forming cells, osteoblasts, was a prerequisite for an increase in bone formation and bone mass. The ability of agents to increase osteoblast proliferation and differentiation can be predicted by their action on cultured osteoblast-line cells in vitro. In this test, mouse (MC3T3-E1) and human (TE-85) osteoblast-line cells (American Type Tissue Culture Collection, #CRL 1543, Rockville, Md. cloned by Sudo et al., Koriyama, Japan) were cultured in vitro and the effect of various agents were tested on osteoblast cell proliferation. Cells were harvested from large culture flasks where they were allowed to grow to near confluency using trypsin. The cells were plated into 96 well culture plates, 1600 cells in 100 μL per well in Dulbencos Modified Eagle's Medium (DMEM) with 25 mM HEPES buffer, L-glutamine (584 mg/L); D-glucose (4.5 g/L) supplemented with fetal bovine sera (10%); penicillin (100 units/mL) and streptomycin (100 mcg/mL); sodium pyruvate (10 μM final concentration). The cells were allowed to plate overnight in DMEM containing 10% fetal bovine sera at 37° C. in an atmosphere of 5% CO2/95% air. Following their placement into 96 well culture plates all the osteoblast-line cells, either the MC3T3-E1 or the TE-85 cell lines, were allowed an additional 24 hours preincubation period in media containing only 0.1% fetal bovine sera.
Twenty hours later, a 20 μL aliquot of media containing 0.4 μCi of ^3 H-thymidine was added to each culture well. The cells were then incubated an additional 4 hours. The incubation was terminated by aspirating the media and washing with HBSS (Hank's Balanced Salt Solution). The cells were then treated with 100 μL of 0.5% trypsin and 5.3 mM EDTA for 30 minutes at room temperature. The cells were then aspirated onto glass fiber filter and washed with water. The radioactivity on the filters was quantified by liquid scintillation spectroscopy. The rate of ^3 H-thymidine incorporation into DNA was then utilized as an index of cell proliferation. The results are shown in Table 13 expressed as % times control where the control is 100%. […]

Compound | Osteoblast Cell Proliferation, 3H-thymidine incorporation vs control (100%) (10^-7) [%] | Osteoblast Cell Proliferation, 3H-thymidine incorporation vs control (100%) (10^-8) [%] | Osteoblast Cell Proliferation, 3H-thymidine incorporation vs control (100%) (10^-9) [%] | Osteoblast Cell Proliferation, 3H-thymidine incorporation vs control (100%) (10^-10) [%] | Osteoblast Cell Proliferation, 3H-thymidine incorporation vs control (100%) (10^-6) [%]
CC1CC(c2ccccc2)=NN(C(=O)c2ccc(Cl)c(Cl)c2)C1 (racemic) [Compound 233, (R,S)-1-(3,4-dichlorobenzoyl)-5-methyl-3-phenyl-1,4,5,6-tetrahydropyridazine] | 130 | 132 | 130 | 138 | 
CC1CC(c2ccccc2)=NN(C(=O)c2ccc(F)c(F)c2)C1 (racemic) [Compound 235, (R,S)-1-(3,4-difluorobenzoyl)-5-methyl-3-phenyl-1,4,5,6-tetrahydropyridazine] | 86 | 87 | 92 | 88 | 
CC1CC(c2ccccc2)=NN(C(=S)c2ccc(Cl)c(Cl)c2)C1 (racemic) [Compound 248, (R,S)-1-(3,4-dichlorothiobenzoyl)-5-methyl-3-phenyl-1,4,5,6-tetrahydropyridazine] | 142 | 130 | 140 | 149 | 
O=S(=O)(c1cccc2ccccc12)N1CCCC(c2ccc(Cl)cc2)=N1 [Compound 44] | 107 | 105 | 95 | 87 | 86
CCCCCCc1ccc(S(=O)(=O)N2CCCC(c3ccc(Cl)c(Cl)c3)=N2)cc1 [Compound 121] | 123 | 122 | 120 | 181 | 120
O=S(=O)(/C=C/c1ccc(-c2ccccc2)cc1)N1CCCC(c2ccc(Cl)c(Cl)c2)=N1 [Compound 168] | 82 | 82 | 76 | 109 | 67
Cc1ccc(/C=C/S(=O)(=O)N2CCCC(c3ccc(Cl)c(Cl)c3)=N2)cc1 [Compound 169] | 131 | 133 | 134 | 195 | 128
O=S(=O)(/C=C/c1ccc2ccccc2c1)N1CCCC(c2ccc(Cl)c(Cl)c2)=N1 [Compound 171] | 110 | 121 | 118 | 129 | 72
O=S(=O)(/C=C/c1ccccc1)N1CCCC(c2ccc3c(c2)CCCC3)=N1 [Compound 176] | 94 | 109 | 113 | 109 | 59
O=C(c1ccc(F)c(Br)c1)N1CCCC(c2ccccc2)=N1 [Compound 229] | 104 | 86 | 99 | 114 | 
CCCCc1ccc(C2=NN(C(=O)c3ccc(Cl)c(Cl)c3)CCC2)cc1 [Compound 231] | 115 | 103 | 145 | 133 | 
O=C(c1cc(Cl)cc(Cl)c1)N1CCCC(c2ccccc2)=N1 [Compound 232] | 110 | 115 | 115 | 121 | 
CC1(C)CC(c2ccccc2)=NN(C(=O)c2ccc(Cl)c(Cl)c2)C1 [Compound 234] | 95 | 84 | 84 | 111 | 
Fc1ccc(C(=S)N2CCCC(c3ccc(Cl)c(Cl)c3)=N2)cc1F [Compound 236, 3-(3,4-Dichlorophenyl)-1-(3,4-difluorothiobenzoyl)-1,4,5,6-tetrahydropyridazine] | 109 | 102 | 106 | 115 | 
S=C(c1ccc(Cl)c(Cl)c1)N1CCCC(c2ccccc2)=N1 [Compound 237, 1-(3,4-dichlorothiobenzoyl)-3-phenyl-1,4,5,6-tetrahydropyridazine] | 113 | 113 | 110 | 119 | 
S=C(c1ccc(Cl)c(Cl)c1)N1CCCC(c2ccc(Cl)c(Cl)c2)=N1 [Compound 243] | 118 | 92 | 96 | 89 | 
S=C(c1cc(Cl)cc(Cl)c1)N1CCCC(c2ccc(Cl)c(Cl)c2)=N1 [Compound 244] | 119 | 134 | 129 | 144 | 
S=C(c1cc(Cl)cc(Cl)c1)N1CCCC(c2ccccc2)=N1 [Compound 247] | 118 | 122 | 122 | 129 | 
CCCCc1ccc(C2=NN(P(=O)(OC)c3ccccc3)CCC2)cc1 (centres unmarked) [Compound 251] | 104 | 111 | 91 | 111 | 109
